From patent EP0326329B1, “Quinazoline derivatives useful as insecticides” (Dow AgroSciences LLC, priority 1988, dated 1989)

What follows are compounds tested on Erysiphe graminis tritici (powdery mildew) (assay: Greenhouse Test 1, foliar spray fungicide screen (POWD MDEW), host wheat). Details: disease control rating, 400 ppm (+++ at 100 ppm).
Assay type: in vivo

SMILES | POWD MDEW
Oc1ccc(CCOc2ncnc3ccccc23)cc1 [Example 115, 4-[2-(4-hydroxyphenyl)ethoxy]quinazoline] | + (+ = 20-89% control at 400 ppm)
Fc1cccc2c(OCCc3ccc(-c4ccccc4)cc3)ncnc12 [Example 116, 8-fluoro-4-[2-(1,1'-biphenyl)-4-ylethoxy]quinazoline] | ++ (++ = 90-100% control at 400 ppm)
Clc1ccc(CCCc2ncnc3ccccc23)cc1 [Example 117, 4-[3-(4-chlorophenyl)propyl]quinazoline] | +++ (+++ = 90-100% control at 100 ppm)
Fc1cccc2c(OCCc3ccc(C(F)(F)F)cc3)ncnc12 [Example 118, 8-fluoro-4-[2-(4-trifluoromethyl)ethoxy]quinazoline] | +++ (+++ = 90-100% control at 100 ppm)
Fc1cccc2c(OCCCc3ccc(Oc4ccccc4)cc3)ncnc12 [Example 119, 8-fluoro-4-[3-(4-phenoxyphenyl)propoxy]quinazoline] | + (+ = 20-89% control at 400 ppm)

The compounds below were run on Pyricularia oryzae (rice blast) (assay: not given). Details: disease control rating, foliar spray, host rice; 400 ppm (+++ at 100 ppm).
Assay type: in vivo

SMILES | RICE BLAST
Oc1ccc(CCOc2ncnc3ccccc23)cc1 [Example 115, 4-[2-(4-hydroxyphenyl)ethoxy]quinazoline] | + (+ = 20-89% control at 400 ppm)
Fc1cccc2c(OCCc3ccc(-c4ccccc4)cc3)ncnc12 [Example 116, 8-fluoro-4-[2-(1,1'-biphenyl)-4-ylethoxy]quinazoline] | +++ (+++ = 90-100% control at 100 ppm)
Clc1ccc(CCCc2ncnc3ccccc23)cc1 [Example 117, 4-[3-(4-chlorophenyl)propyl]quinazoline] | ++ (++ = 90-100% control at 400 ppm)
Fc1cccc2c(OCCc3ccc(C(F)(F)F)cc3)ncnc12 [Example 118, 8-fluoro-4-[2-(4-trifluoromethyl)ethoxy]quinazoline] | +++ (+++ = 90-100% control at 100 ppm)
Fc1cccc2c(OCCCc3ccc(Oc4ccccc4)cc3)ncnc12 [Example 119, 8-fluoro-4-[3-(4-phenoxyphenyl)propoxy]quinazoline] | ++ (++ = 90-100% control at 400 ppm)

These compounds were tested on Puccinia recondita tritici (leaf rust) (assay: Greenhouse Test 1, foliar spray fungicide screen (LEAF RUST), host wheat). Details: disease control rating, 400 ppm (+++ at 100 ppm).
Assay type: in vivo

SMILES | LEAF RUST
Oc1ccc(CCOc2ncnc3ccccc23)cc1 [Example 115, 4-[2-(4-hydroxyphenyl)ethoxy]quinazoline] | +++ (+++ = 90-100% control at 100 ppm)
Fc1cccc2c(OCCc3ccc(-c4ccccc4)cc3)ncnc12 [Example 116, 8-fluoro-4-[2-(1,1'-biphenyl)-4-ylethoxy]quinazoline] | + (+ = 20-89% control at 400 ppm)
Clc1ccc(CCCc2ncnc3ccccc23)cc1 [Example 117, 4-[3-(4-chlorophenyl)propyl]quinazoline] | +++ (+++ = 90-100% control at 100 ppm)
Fc1cccc2c(OCCc3ccc(C(F)(F)F)cc3)ncnc12 [Example 118, 8-fluoro-4-[2-(4-trifluoromethyl)ethoxy]quinazoline] | +++ (+++ = 90-100% control at 100 ppm)
Fc1cccc2c(OCCCc3ccc(Oc4ccccc4)cc3)ncnc12 [Example 119, 8-fluoro-4-[3-(4-phenoxyphenyl)propoxy]quinazoline] | + (+ = 20-89% control at 400 ppm)

These compounds were tested on Botrytis cinerea (gray mold) (assay: Greenhouse Test 1, foliar spray fungicide screen (GRAY MOLD), host grape berries). Details: disease control rating, 400 ppm (+++ at 100 ppm).
Assay type: in vivo

SMILES | GRAY MOLD
Oc1ccc(CCOc2ncnc3ccccc23)cc1 [Example 115, 4-[2-(4-hydroxyphenyl)ethoxy]quinazoline] | - (- = 0-19% control at 400 ppm)
Fc1cccc2c(OCCc3ccc(-c4ccccc4)cc3)ncnc12 [Example 116, 8-fluoro-4-[2-(1,1'-biphenyl)-4-ylethoxy]quinazoline] | - (- = 0-19% control at 400 ppm)
Clc1ccc(CCCc2ncnc3ccccc23)cc1 [Example 117, 4-[3-(4-chlorophenyl)propyl]quinazoline] | - (- = 0-19% control at 400 ppm)
Fc1cccc2c(OCCc3ccc(C(F)(F)F)cc3)ncnc12 [Example 118, 8-fluoro-4-[2-(4-trifluoromethyl)ethoxy]quinazoline] | - (- = 0-19% control at 400 ppm)
Fc1cccc2c(OCCCc3ccc(Oc4ccccc4)cc3)ncnc12 [Example 119, 8-fluoro-4-[3-(4-phenoxyphenyl)propoxy]quinazoline] | - (- = 0-19% control at 400 ppm)

The compounds below were run on Pseudoperonospora cubensis (downy mildew) (assay: Greenhouse Test 1, foliar spray fungicide screen (DOWN MDEW), host squash). Details: disease control rating, 400 ppm (+++ at 100 ppm).
Assay type: in vivo

SMILES | DOWN MDEW
Oc1ccc(CCOc2ncnc3ccccc23)cc1 [Example 115, 4-[2-(4-hydroxyphenyl)ethoxy]quinazoline] | + (+ = 20-89% control at 400 ppm)
Fc1cccc2c(OCCc3ccc(-c4ccccc4)cc3)ncnc12 [Example 116, 8-fluoro-4-[2-(1,1'-biphenyl)-4-ylethoxy]quinazoline] | +++ (+++ = 90-100% control at 100 ppm)
Clc1ccc(CCCc2ncnc3ccccc23)cc1 [Example 117, 4-[3-(4-chlorophenyl)propyl]quinazoline] | ++ (++ = 90-100% control at 400 ppm)
Fc1cccc2c(OCCc3ccc(C(F)(F)F)cc3)ncnc12 [Example 118, 8-fluoro-4-[2-(4-trifluoromethyl)ethoxy]quinazoline] | +++ (+++ = 90-100% control at 100 ppm)
Fc1cccc2c(OCCCc3ccc(Oc4ccccc4)cc3)ncnc12 [Example 119, 8-fluoro-4-[3-(4-phenoxyphenyl)propoxy]quinazoline] | - (- = 0-19% control at 400 ppm)

The compounds below were run on Southern corn rootworm (Diabrotica undecimpuctata howardi Barber) (assay: Mite/insect screen, soil treatment (CRW)). Details: Diabrotica; percent mortality; soil treatment, CRW rate 12.00 ppm; read-out: CRW RESULTS %.
Assay type: in vivo
In short: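 Five 2–3 instar larvae were placed on dry sandy soil with a presoaked corn seed after the soil had received 1 mL of compound solution and dried 6–12 h; cups were kept capped at 23°C. Mortality (%) and phytotoxicity were read after standard exposure. Formulation: acetone/alcohol with emulsifiers, water-diluted.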

SMILES | mortality at 12 ppm [%]
Oc1ccc(CCOc2ncnc3ccccc23)cc1 [Example 115, 4-[2-(4-hydroxyphenyl)ethoxy]quinazoline] | 0
Fc1cccc2c(OCCc3ccc(-c4ccccc4)cc3)ncnc12 [Example 116, 8-fluoro-4-[2-(1,1'-biphenyl)-4-ylethoxy]quinazoline] | 0
Clc1ccc(CCCc2ncnc3ccccc23)cc1 [Example 117, 4-[3-(4-chlorophenyl)propyl]quinazoline] | 0
Fc1cccc2c(OCCc3ccc(C(F)(F)F)cc3)ncnc12 [Example 118, 8-fluoro-4-[2-(4-trifluoromethyl)ethoxy]quinazoline] | 0
Fc1cccc2c(OCCCc3ccc(Oc4ccccc4)cc3)ncnc12 [Example 119, 8-fluoro-4-[3-(4-phenoxyphenyl)propoxy]quinazoline] | 0

Same assay, conditions: Diabrotica; percent mortality; soil treatment, CRW rate 24.00 ppm; read-out: CRW RESULTS %

SMILES | mortality at 24 ppm [%]
Oc1ccc(CCOc2ncnc3ccccc23)cc1 [Example 115, 4-[2-(4-hydroxyphenyl)ethoxy]quinazoline] | 0
Fc1cccc2c(OCCc3ccc(-c4ccccc4)cc3)ncnc12 [Example 116, 8-fluoro-4-[2-(1,1'-biphenyl)-4-ylethoxy]quinazoline] | 0
Clc1ccc(CCCc2ncnc3ccccc23)cc1 [Example 117, 4-[3-(4-chlorophenyl)propyl]quinazoline] | 0
Fc1cccc2c(OCCc3ccc(C(F)(F)F)cc3)ncnc12 [Example 118, 8-fluoro-4-[2-(4-trifluoromethyl)ethoxy]quinazoline] | 0
Fc1cccc2c(OCCCc3ccc(Oc4ccccc4)cc3)ncnc12 [Example 119, 8-fluoro-4-[3-(4-phenoxyphenyl)propoxy]quinazoline] | 0

What follows are compounds tested on southern armyworm (Spodopetra eridania Cramer) (assay: Mite/insect screen, sprayed squash leaves (SAW)). Details: Spodoptera eridania, percent mortality; spray rate 200 ppm; read-out: SAW RESULTS %.
Assay type: in vivo
In short: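 Steps: formulate compound in acetone/alcohol 50:50 carrying emulsifiers; dilute with water; spray leaves until runoff on upper and lower surfaces; air-dry one hour; for armyworm, excise two […] leaves into a dish of larvae; after exposure, score mortality and plant injury.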

SMILES | mortality at 200 ppm [%]
Oc1ccc(CCOc2ncnc3ccccc23)cc1 [Example 115, 4-[2-(4-hydroxyphenyl)ethoxy]quinazoline] | 0
Clc1ccc(CCCc2ncnc3ccccc23)cc1 [Example 117, 4-[3-(4-chlorophenyl)propyl]quinazoline] | 0
Fc1cccc2c(OCCc3ccc(C(F)(F)F)cc3)ncnc12 [Example 118, 8-fluoro-4-[2-(4-trifluoromethyl)ethoxy]quinazoline] | 60
Fc1cccc2c(OCCCc3ccc(Oc4ccccc4)cc3)ncnc12 [Example 119, 8-fluoro-4-[3-(4-phenoxyphenyl)propoxy]quinazoline] | 0

Same assay, conditions: Spodoptera eridania, percent mortality; spray rate 400 ppm; read-out: SAW RESULTS %

SMILES | mortality at 400 ppm [%]
Oc1ccc(CCOc2ncnc3ccccc23)cc1 [Example 115, 4-[2-(4-hydroxyphenyl)ethoxy]quinazoline] | 0
Clc1ccc(CCCc2ncnc3ccccc23)cc1 [Example 117, 4-[3-(4-chlorophenyl)propyl]quinazoline] | 0
Fc1cccc2c(OCCc3ccc(C(F)(F)F)cc3)ncnc12 [Example 118, 8-fluoro-4-[2-(4-trifluoromethyl)ethoxy]quinazoline] | 100
Fc1cccc2c(OCCCc3ccc(Oc4ccccc4)cc3)ncnc12 [Example 119, 8-fluoro-4-[3-(4-phenoxyphenyl)propoxy]quinazoline] | 90

Same assay, conditions: percent mortality; spray rate 200 ppm

SMILES | SAW RESULTS % [%]
Fc1cccc2c(OCCc3ccc(-c4ccccc4)cc3)ncnc12 [Example 116, 8-fluoro-4-[2-(1,1'-biphenyl)-4-ylethoxy]quinazoline] | 0

Same assay, conditions: percent mortality; spray rate 400 ppm

SMILES | SAW RESULTS % [%]
Fc1cccc2c(OCCc3ccc(-c4ccccc4)cc3)ncnc12 [Example 116, 8-fluoro-4-[2-(1,1'-biphenyl)-4-ylethoxy]quinazoline] | 0

These compounds were tested on Twospotted spider mites (Tetranychus urticae Koch) (assay: Mite/insect screen, sprayed squash cotyledons (SM)). Details: Tetranychus urticae, percent mortality; spray rate 200 ppm; read-out: SM RESULTS %.
Assay type: in vivo
In short: (§1)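 Compounds were dissolved in 50:50 acetone/alcohol containing sulfonate/nonionic emulsifier blends (23 g and 13 g per liter) and diluted with water to test concentrations. Leaves were sprayed on both surfaces to runoff and dried for one hour. Percent mortality and phytotoxicity were scored after standard exposure periods.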

SMILES | mortality at 200 ppm [%]
Oc1ccc(CCOc2ncnc3ccccc23)cc1 [Example 115, 4-[2-(4-hydroxyphenyl)ethoxy]quinazoline] | 0
Clc1ccc(CCCc2ncnc3ccccc23)cc1 [Example 117, 4-[3-(4-chlorophenyl)propyl]quinazoline] | 100
Fc1cccc2c(OCCc3ccc(C(F)(F)F)cc3)ncnc12 [Example 118, 8-fluoro-4-[2-(4-trifluoromethyl)ethoxy]quinazoline] | 100
Fc1cccc2c(OCCCc3ccc(Oc4ccccc4)cc3)ncnc12 [Example 119, 8-fluoro-4-[3-(4-phenoxyphenyl)propoxy]quinazoline] | 50

Same assay, conditions: Tetranychus urticae, percent mortality; spray rate 400 ppm; read-out: SM RESULTS %

SMILES | mortality at 400 ppm [%]
Oc1ccc(CCOc2ncnc3ccccc23)cc1 [Example 115, 4-[2-(4-hydroxyphenyl)ethoxy]quinazoline] | 0
Fc1cccc2c(OCCc3ccc(-c4ccccc4)cc3)ncnc12 [Example 116, 8-fluoro-4-[2-(1,1'-biphenyl)-4-ylethoxy]quinazoline] | 0
Clc1ccc(CCCc2ncnc3ccccc23)cc1 [Example 117, 4-[3-(4-chlorophenyl)propyl]quinazoline] | 0
Fc1cccc2c(OCCc3ccc(C(F)(F)F)cc3)ncnc12 [Example 118, 8-fluoro-4-[2-(4-trifluoromethyl)ethoxy]quinazoline] | 0
Fc1cccc2c(OCCCc3ccc(Oc4ccccc4)cc3)ncnc12 [Example 119, 8-fluoro-4-[3-(4-phenoxyphenyl)propoxy]quinazoline] | 0

Each compound was assayed on melon aphids (Aphis gossypii Glover) (assay: Mite/insect screen, sprayed squash cotyledons (MA)). Details: Aphis gossypii, percent mortality; spray rate 200 ppm; read-out: MA RESULTS %.
Assay type: in vivo
In short: as §1

SMILES | mortality at 200 ppm [%]
Oc1ccc(CCOc2ncnc3ccccc23)cc1 [Example 115, 4-[2-(4-hydroxyphenyl)ethoxy]quinazoline] | 0
Clc1ccc(CCCc2ncnc3ccccc23)cc1 [Example 117, 4-[3-(4-chlorophenyl)propyl]quinazoline] | 90
Fc1cccc2c(OCCc3ccc(C(F)(F)F)cc3)ncnc12 [Example 118, 8-fluoro-4-[2-(4-trifluoromethyl)ethoxy]quinazoline] | 100
Fc1cccc2c(OCCCc3ccc(Oc4ccccc4)cc3)ncnc12 [Example 119, 8-fluoro-4-[3-(4-phenoxyphenyl)propoxy]quinazoline] | 80

Same assay, conditions: Aphis gossypii, percent mortality; spray rate 400 ppm; read-out: MA RESULTS %

SMILES | mortality at 400 ppm [%]
Oc1ccc(CCOc2ncnc3ccccc23)cc1 [Example 115, 4-[2-(4-hydroxyphenyl)ethoxy]quinazoline] | 0
Fc1cccc2c(OCCc3ccc(-c4ccccc4)cc3)ncnc12 [Example 116, 8-fluoro-4-[2-(1,1'-biphenyl)-4-ylethoxy]quinazoline] | 0
Clc1ccc(CCCc2ncnc3ccccc23)cc1 [Example 117, 4-[3-(4-chlorophenyl)propyl]quinazoline] | 0
Fc1cccc2c(OCCc3ccc(C(F)(F)F)cc3)ncnc12 [Example 118, 8-fluoro-4-[2-(4-trifluoromethyl)ethoxy]quinazoline] | 0
Fc1cccc2c(OCCCc3ccc(Oc4ccccc4)cc3)ncnc12 [Example 119, 8-fluoro-4-[3-(4-phenoxyphenyl)propoxy]quinazoline] | 0
